According to patent publication EP0279079B1, “Purine derivatives as interleukin-1 inhibitors” (HOECHST MARION ROUSSEL, Inc., priority 1986, dated 1988):

Tests used:
[1] = system: polymorphonuclear neutrophil (PMN); assay: PMN adherence on nylon fiber column; assay type: cell-based, human; settings: for percent adherence of PMN on the nylon column: three conditions: M199 "control", IL-1 80U/ml, "LPS KINE"
Description: (§1) Purified human IL-1 was obtained from Cistron Technology, Pinebrook, New Jersey. As is known, the production of IL-1 from macrophages or circulating monocytes can be stimulated by the presence of bacterial lipopolysaccharides. Stites et al, Basic and Clinical Immunology, page 87 (1984). Accordingly, in vitro-generated IL-1 was obtained through the incubation of mononuclear leukocytes. Mononuclear leukocytes (3 x 10^6/ml) from ficoll-hypaque separation were incubated in medium 199 (M199) containing 10% fresh autologous serum with or without lipopolysaccharides 5ng/ml or with or without supernatant from C. albicans culture for 18 hours at 37° C (10% CO2) in LAB-TEK Flaskettes (Miles Inc., Naperville, Illinois). The suspension was centrifuged (150g X 10 minutes) and the supernatant filtered (0.45 micron 4) and frozen (-70° C).
Purified PMN (5 x 10^6/ml) were incubated 30 minutes at 37°C in M199, "NONE", LPS (1ng/ml), "LPS", mononuclear leukocyte conditioned medium, "CONT KINES", or in LPS stimulated mononuclear leukocyte conditioned medium, "LPS KINES". One ml was pipetted onto the top of a nylon fiber column and incubated at 37°C for 30 minutes. The PMN in the effluent samples were counted and the percent adherence of PMN on the column determined.
Two tenths ml of purified PMN (1 x 10^7/ml) was incubated 30 minutes at 37°C in M199, "control", or M199 containing IL-1 (80U/ml), "IL-1", or in LPS stimulated mononuclear leukocyte conditioned medium, "LPS KINE", with or without pentoxifylline (0.1 or 50 micrograms/ml).
Following incubation the samples were diluted to a final concentration of 5 x 10^6/ml with M199 (2% serum). One ml was placed onto the top of a nylon fiber column and incubated at 37°C for 30 minutes. The PMN in the effluent samples were counted and the percent adherence of PMN on the nylon column calculated.

[2] = system: polymorphonuclear neutrophil (PMN); assay: PMN chemotaxis (directed migration) under agarose, chemoattractant FMLP; assay type: cell-based, human; settings: for directed migration inhibited by "LPS KINE": LPS stimulated mononuclear leukocyte conditioned M199 2% serum; for directed migration inhibited by interleukin-1: MEM containing IL-1 at 0 to 80 Units/ml
Description: as §1
Neutrophils were placed in the center well of a triplet and the chemoattractant (FMLP 10^-7M) was placed in one outer well and M199 was placed in the opposite well. Following 2 hours incubation at 37° C the plates were fixed and stained and the zones of migration measured. The directed migration was the distance in mm that the leading front of PMN moved towards the chemoattractant.
(§2) Pure PMN (5 x 10^6/ml) were incubated for 30 minutes at 37°C with or without pentoxifylline (0.1 or 50 micrograms/ml) in M199 2% serum, "NO ADD", M199 2% serum containing LPS (1ng/ml), "LPS", mononuclear leukocyte conditioned M199 2% serum, "CONT KINE", or LPS stimulated mononuclear leukocyte conditioned M199 2% serum, "LPS KINE". The PMN were concentrated 10 fold prior to application in the under agarose chemotaxis assay.
as §2, with “5%” for “2%”, “supernatant from C. albicans culture, "C.ALB",” for “LPS (1ng/ml), "LPS",”, “C. albicans” for “LPS”, “"C. ALB” for “"LPS”
Pure PMN (5 x 10^6/ml) were incubated for 30 minutes at 37°C with or without pentoxifylline (0.1 or 50 micrograms/ml) in minimum essential medium (MEM) or MEM containing IL-1 at 0 to 80 Units/ml. The PMN were concentrated 10 fold prior to application inthe under agarose chemotaxis assay.

[3] = pentoxifylline 0.1 micrograms/ml
[4] = pentoxifylline 50 micrograms/ml

In the case of `CC(=O)CCCCn1c(=O)c2c(ncn2C)n(C)c1=O` [Pentoxifylline, pentoxifylline], the “percent adherence of PMN on the nylon column” value [1, 3] was “decreased”, the “percent adherence of PMN on the column” value ([1]; pentoxifylline 50 micrograms/ml, all four conditions: M199 "NONE", LPS 1ng/ml, "CONT KINES", "LPS KINES", 30 minutes at 37°C) was “decreased” and the “percent adherence of PMN on the nylon column” value [1, 4] was “decreased”. For the same molecule, the “directed migration inhibited by "LPS KINE"” value [2, 3] was “increased”, the “directed migration inhibited by interleukin-1” value [2, 3] was “increased” and the “directed migration inhibited by "C.ALB KINE"” value ([2]; pentoxifylline 50 micrograms/ml, C. albicans stimulated mononuclear leukocyte conditioned M199 5% serum) was “increased”. The “directed migration inhibited by "LPS KINE"” value [2, 4] was “increased”, the “directed migration inhibited by interleukin-1” value [2, 4] was “increased” and the “directed migration inhibited by "CONT KINE"” value ([2]; pentoxifylline 50 micrograms/ml, mononuclear leukocyte conditioned M199 5% serum) was “increased”.
